Experimental data as given in patent US12673961B2 (Agios Pharmaceuticals, Inc., priority 2022, dated 2026).

What follows are compounds tested against T1, human PAH with the R408W mutation (Homo sapiens, UniProt P00439, R408W) (assay: Cell Based Phenylalanine Flux Assay). Details: A375 cells expressing human R408W PAH; 24 hrs compound incubation; 13C-Tyrosine by LC-MS; average where tested multiple times; read-out: AC50.
T1 construct: expressed in transfected cells
T1 sequence (P00439 1-452 R408W): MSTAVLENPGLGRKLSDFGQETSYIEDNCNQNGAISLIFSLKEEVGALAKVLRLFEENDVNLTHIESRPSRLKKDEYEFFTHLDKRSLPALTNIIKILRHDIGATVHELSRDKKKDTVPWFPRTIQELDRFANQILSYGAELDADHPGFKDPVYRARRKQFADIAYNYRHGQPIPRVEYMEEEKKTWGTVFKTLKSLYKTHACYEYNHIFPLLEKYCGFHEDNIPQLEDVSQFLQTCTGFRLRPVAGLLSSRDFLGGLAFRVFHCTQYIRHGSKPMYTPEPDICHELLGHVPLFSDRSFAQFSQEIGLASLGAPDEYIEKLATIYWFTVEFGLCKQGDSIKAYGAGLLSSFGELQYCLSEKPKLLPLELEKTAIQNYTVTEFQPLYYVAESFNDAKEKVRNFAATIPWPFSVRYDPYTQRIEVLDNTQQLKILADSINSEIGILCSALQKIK
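Further: Ten-point dose curve from 2-fold serial dilutions, run in duplicate at 0.5% DMSO final, tracer step used 20 µM sepiapterin and 800 µM labeled phenylalanine.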

Compound	AC50 [nM]
Cc1cccc2cc([C@H]3c4nc[nH]c4CCN3C(=O)c3nnc(-c4ccccn4)o3)nn12 [Example 799, (R)-(4-(7-methylpyrazolo [1,5-a]pyridin-2-yl)-6,7-dihydro-1H-imidazo[4,5-c]pyridin-5(4H)-yl)(5-(pyridin-2-yl)-1,3,4-oxadiazol-2-yl) methanone]	> 5000
Cc1cccc2cc([C@@H]3c4nc[nH]c4CCN3C(=O)c3nnc(-c4cnn(C)c4)o3)nn12 [Example 800, (S)-(5-(1-methyl-1H-pyrazol-4-yl)-1,3,4-oxadiazol-2-yl)(4-(7-methylpyrazolo[1,5-a]pyridin-2-yl)-6,7-dihydro-1H-imidazo[4,5-c]pyridin-5(4H)-yl)methanone]	500 to 1000
Cc1cccc2cc([C@@H]3c4nc[nH]c4CCN3C(=O)c3nnc(-c4ccn(C)n4)o3)nn12 [Example 802, (S)-(5-(1-methyl-1H-pyrazol-3-yl)-1,3,4-oxadiazol-2-yl)(4-(7-methylpyrazolo[1,5-a]pyridin-2-yl)-6,7-dihydro-1H-imidazo[4,5-c]pyridin-5(4H)-yl)methanone]	< 500
Cc1ccc2cc([C@@H]3c4nc[nH]c4CCN3C(=O)c3oc(C(C)(C)O)nc3C(F)F)nn2c1 [Example 804]	< 500
Cc1cccn2nc([C@@H]3c4nc[nH]c4CCN3C(=O)c3nnc(-c4cn(C)cn4)o3)cc12 [Example 806, (S)-(5-(1-methyl-1H-imidazol-4-yl)-1,3,4-oxadiazol-2-yl)(4-(4-methylpyrazolo[1,5-a]pyridin-2-yl)-6,7-dihydro-1H-imidazo[4,5-c]pyridin-5(4H)-yl)methanone]	500 to 1000
O=C(c1nnc(-c2ccccn2)o1)N1CCc2[nH]cnc2[C@H]1c1cc2c(C(F)(F)F)cccn2n1 [Example 826, (S)-(5-(pyridin-2-yl)-1,3,4-oxadiazol-2-yl)(4-(4-(trifluoromethyl)pyrazolo [1,5-a]pyridin-2-yl)-6,7-dihydro-1H-imidazo[4,5-c]pyridin-5(4H)-yl)methanone]	< 500
O=C(c1nnc(-c2ccccn2)o1)N1CCc2[nH]cnc2[C@@H]1c1cc2c(C(F)(F)F)cccn2n1 [Example 827, (R)-(5-(pyridin-2-yl)-1,3,4-oxadiazol-2-yl)(4-(4-(trifluoromethyl)pyrazolo [1,5-a]pyridin-2-yl)-6,7-dihydro-1H-imidazo[4,5-c]pyridin-5(4H)-yl)methanone]	> 5000
O=C(c1nnc(-c2cnn(C3CCC3)c2)o1)N1CCc2[nH]cnc2[C@@H]1c1cc2c(F)cccn2n1 [Example 833, (R)-(5-(1-cyclobutyl-1H-pyrazol-4-yl)-1,3,4-oxadiazol-2-yl)(4-(4-fluoropyrazolo[1,5-a]pyridin-2-yl)-6,7-dihydro-1H-imidazo [4,5-c]pyridin-5(4H)-yl) methanone]	> 5000
Cc1cccn2nc([C@H]3c4nc[nH]c4CCN3C(=O)c3ncnn3C)cc12 [Example 839, (R)-(1-methyl-1H-1,2,4-triazol-5-yl)(4-(4-methylpyrazolo[1,5-a]pyridin-2-yl)-6,7-dihydro-1H-imidazo[4,5-c]pyridin-5(4H)-yl)methanone]	1000 to 5000
O=C(c1ccnn1C1CC1)N1CCc2[nH]cnc2[C@H]1c1cc2c(F)cccn2n1 [Example 848, (S)-(1-cyclopropyl-1H-pyrazol-5-yl)(4-(4-fluoropyrazolo[1,5-a]pyridin-2-yl)-6,7-dihydro-1H-imidazo[4,5-c]pyridin-5(4H)-yl)methanone]	< 500
Cc1cccn2nc([C@@H]3c4nc[nH]c4CCN3C(=O)c3cc(C(F)F)nn3C)cc12 [Example 867, (S)-(3-(difluoromethyl)-1-methyl-1H-pyrazol-5-yl)(4-(4-methylpyrazolo[1,5-a]pyridin-2-yl)-6,7-dihydro-1H-imidazo[4,5-c]pyridin-5(4H)-yl)methanone]	< 500
Cc1cccn2nc([C@H]3c4nc[nH]c4CCN3C(=O)c3nnc(-c4ccc(F)cn4)o3)cc12 [Example 874, (R)-(5-(5-fluoropyridin-2-yl)-1,3,4-oxadiazol-2-yl)(4-(4-methylpyrazolo[1,5-a]pyridin-2-yl)-6,7-dihydro-1H-imidazo[4,5-c]pyridin-5(4H)-yl)methanone]	> 5000
Cc1cc(-c2nnc(C(=O)N3CCc4[nH]cnc4[C@H]3c3cc4c(F)cccn4n3)o2)nn1C [Example 883, (S)-(5-(1,5-dimethyl-1H-pyrazol-3-yl)-1,3,4-oxadiazol-2-yl)(4-(4-fluoropyrazolo[1,5-a]pyridin-2-yl)-6,7-dihydro-1H-imidazo[4,5-c]pyridin-5(4H)-yl)methanone]	< 500
Cc1cccn2nc([C@@H]3c4nc[nH]c4CCN3C(=O)c3nnc(-c4cccnc4)o3)cc12 [Example 894, (S)-(4-(4-methylpyrazolo [1,5-a]pyridin-2-yl)-6,7-dihydro-1H-imidazo[4,5-c]pyridin-5(4H)-yl)(5-(pyridin-3-yl)-1,3,4-oxadiazol-2-yl) methanone]	< 500
Cc1cccc2cc([C@@H]3c4nc[nH]c4CCN3C(=O)c3nnc(-c4ncccc4F)o3)nn12 [Example 912, (S)-(5-(3-fluoropyridin-2-yl)-1,3,4-oxadiazol-2-yl)(4-(7-methylpyrazolo[1,5-a]pyridin-2-yl)-6,7-dihydro-1H-imidazo[4,5-c]pyridin-5(4H)-yl)methanone]	< 500
Cc1cccc2cc([C@H]3c4nc[nH]c4CCN3C(=O)c3nnc(-c4cnn(C(F)F)c4)o3)nn12 [Example 915, (R)-(5-(1-(difluoromethyl)-1H-pyrazol-4-yl)-1,3,4-oxadiazol-2-yl)(4-(7-methylpyrazolo[1,5-a]pyridin-2-yl)-6,7-dihydro-1H-imidazo[4,5-c]pyridin-5(4H)-yl)methanone]	> 5000
Cc1cccn2nc([C@H]3c4nc[nH]c4CCN3C(=O)c3nnc(C4CC4)o3)cc12 [Example 925, (R)-(5-cyclopropyl-1,3,4-oxadiazol-2-yl)(4-(4-methylpyrazolo[1,5-a]pyridin-2-yl)-6,7-dihydro-1H-imidazo[4,5-c]pyridin-5(4H)-yl)methanone]	> 5000
Cc1cccc2cc([C@H]3c4nc[nH]c4CCN3C(=O)c3nnc(C(C)(C)F)o3)nn12 [Example 939, (R)-(5-(2-fluoropropan-2-yl)-1,3,4-oxadiazol-2-yl)(4-(7-methylpyrazolo[1,5-a]pyridin-2-yl)-6,7-dihydro-1H-imidazo[4,5-c]pyridin-5(4H)-yl)methanone]	> 5000
O=C(c1ocnc1C(F)F)N1CCc2[nH]cnc2[C@H]1c1cc2cccc(Cl)n2n1 [Example 958, (S)-(4-(7-chloropyrazolo [1,5-a]pyridin-2-yl)-6,7-dihydro-1H-imidazo[4,5-c]pyridin-5(4H)-yl)(4-(difluoromethyl)oxazol-5-yl)methanone]	< 500
O=C(c1nnc(-c2cnccn2)o1)N1CCc2[nH]cnc2[C@H]1c1cc2c(F)cccn2n1 [Example 962, (S)-(4-(4-fluoropyrazolo[1,5-a]pyridin-2-yl)-6,7-dihydro-1H-imidazo[4,5-c]pyridin-5(4H)-yl)(5-(pyrazin-2-yl)-1,3,4-oxadiazol-2-yl)methanone]	< 500
CC(C)(F)c1nnc(C(=O)N2CCc3[nH]cnc3[C@H]2c2cc3cccc(Cl)n3n2)o1 [Example 969, (S)-(4-(7-chloropyrazolo [1,5-a]pyridin-2-yl)-6,7-dihydro-1H-imidazo[4,5-c]pyridin-5(4H)-yl)(5-(2-fluoropropan-2-yl)-1,3,4-oxadiazol-2-yl)methanone]	< 500
O=C(c1nnc(-c2cnccn2)o1)N1CCc2[nH]cnc2[C@H]1c1cc2cccc(Cl)n2n1 [Example 979, (S)-(4-(7-chloropyrazolo [1,5-a]pyridin-2-yl)-6,7-dihydro-1H-imidazo[4,5-c]pyridin-5(4H)-yl)(5-(pyrazin-2-yl)-1,3,4-oxadiazol-2-yl)methanone]	< 500
O=C(c1nnc(-c2cnn(C(F)F)c2)o1)N1CCc2[nH]cnc2[C@H]1c1cc2cccc(F)n2n1 [Example 984, (S)-(5-(1-(difluoromethyl)-1H-pyrazol-4-yl)-1,3,4-oxadiazol-2-yl)(4-(7-fluoropyrazolo[1,5-a]pyridin-2-yl)-6,7-dihydro-1H-imidazo [4,5-c]pyridin-5(4H)-yl)methanone]	500 to 1000
Cc1cccn2nc([C@@H]3c4nc[nH]c4CCN3C(=O)c3nnc(C(C)(C)C)o3)cc12 [Example 1022, (S)-(5-(tert-butyl)-1,3,4-oxadiazol-2-yl)(4-(4-methylpyrazolo[1,5-a]pyridin-2-yl)-6,7-dihydro-1H-imidazo[4,5-c]pyridin-5(4H)-yl)methanone]	< 500
Cc1cccn2nc([C@H]3c4nc[nH]c4CCN3C(=O)c3nnc(C(C)(C)C)o3)cc12 [Example 1023, (R)-(5-(tert-butyl)-1,3,4-oxadiazol-2-yl)(4-(4-methylpyrazolo[1,5-a]pyridin-2-yl)-6,7-dihydro-1H-imidazo[4,5-c]pyridin-5(4H)-yl)methanone]	> 5000
Cn1ccc(-c2nnc(C(=O)N3CCc4[nH]cnc4[C@@H]3c3cc4cccc(C(F)(F)F)n4n3)o2)n1 [Example 1031, (R)-(5-(1-methyl-1H-pyrazol-3-yl)-1,3,4-oxadiazol-2-yl)(4-(7-(trifluoromethyl)pyrazolo[1,5-a]pyridin-2-yl)-6,7-dihydro-1H-imidazo [4,5-c]pyridin-5(4H)-yl)methanone]	> 5000
O=C(c1nnc(-c2ccccn2)o1)N1CCc2[nH]cnc2[C@@H]1c1cc2cccc(Cl)n2n1 [Example 1043, (R)-(4-(7-chloropyrazolo [1,5-a]pyridin-2-yl)-6,7-dihydro-1H-imidazo[4,5-c]pyridin-5(4H)-yl)(5-(pyridin-2-yl)-1,3,4-oxadiazol-2-yl) methanone]	> 5000
